Where “and” joins values, the source holds several entries; their conditions need not be identical. Identical values can stand only once.
Tested on: beagles
Assay: 13-week repeated oral toxicity: hematological test
Type: in vivo, beagle
Procedure: Fasting was conducted the day before administration (blood test date, pre), the 4th week (day 29) after administration, the 8th week (day 57) after administration, and the 13th week (day 92) after administration, and when the remaining feed was present in the feed container 3 hours after feeding on the day of fasting, it was removed.
All subjects were fasted for 16 hours and measurements were then performed pre (before administration), 4 weeks (day 29) after administration, 8 weeks (day 57) after administration, and 13 weeks (day 92) after administration. Within 3 hours after 2 to 3 ml of blood collected from the jugular vein of each subject was injected into a CBC bottle containing EDTA, RBC, HGB, HCT, RBC indices (MCV, MCH, MCHC), and platelet count and WBC differential count were measured using an automatic hematometer.

[1] = G2 200 mg/kg group, female (F4-F6, Mean), before administration (day 0)
[2] = G2 200 mg/kg group, female (F4-F6, Mean), before administration (day 0), mean
[3] = G2 200 mg/kg group, male (M4-M6, Mean), before administration (day 0)
[4] = G2 200 mg/kg group, male (M4-M6, Mean), before administration (day 0), mean
[5] = G2 200 mg/kg, repeated administration for 13 weeks, female, group mean
[6] = G2 200 mg/kg, repeated administration for 13 weeks, female, individual animals
[7] = G2 200 mg/kg, repeated administration for 13 weeks, male, group mean
[8] = G2 200 mg/kg, repeated administration for 13 weeks, male, individual animals
[9] = G3 500 mg/kg group, female (F7-F9, Mean), before administration (day 0)
[10] = G3 500 mg/kg group, female (F7-F9, Mean), before administration (day 0), mean
[11] = G3 500 mg/kg group, male (M7-M9, Mean), before administration (day 0)
[12] = G3 500 mg/kg group, male (M7-M9, Mean), before administration (day 0), mean
[13] = G3 500 mg/kg, repeated administration for 13 weeks, female, group mean

Question: `CN1C(=O)NC(=O)C1O` (stereo not drawn) [KBP-001, 5-hydroxy-1-methylimidazolidine-2,4-dione] was tested. Which HCT [1] did it give?
Answer: 47.0% and 49.6% and 51.3%

Question: And the HGB [1]?
Answer: 15. g/dl and 16.7 g/dl and 17.5 g/dl

Question: What about the MCH [1] of the same molecule?
Answer: 22.5 pg and 22.6 pg and 22.7 pg

Question: And the MCHC [1]?
Answer: 33.8 g/dL and 33.6 g/dL and 34.1 g/dL

Question: And the MCV [1]?
Answer: 66.6 fL and 67.3 fL and 66.7 fL

Question: And the Retic [1]?
Answer: 0.77% and 1.34% and 1.01%

Question: What about the “WBC Differential Counting Baso” value [1] of the same molecule?
Answer: 1.0% (2×) and 0.8%

Question: And the “WBC Differential Counting Eos” value [1]?
Answer: 7.3% and 5.5% and 4.5%

Question: And the “WBC Differential Counting Lymph” value [1]?
Answer: 30.0% and 20.55% and 30.2%

Question: And the “WBC Differential Counting Mono” value [1]?
Answer: 5.7% and 6.2% and 6.1%

Question: What about the “WBC Differential Counting Neut” value [1] of the same molecule?
Answer: 55.5% and 66.3% and 57.6%

Question: And the HCT [2]?
Answer: 49.30%

Question: What about the HGB [2] of the same molecule?
Answer: 16.70 g/dL

Question: And the MCH [2]?
Answer: 22.6 pg

Question: And the MCHC [2]?
Answer: 33.83 g/dL

Question: And the MCV [2]?
Answer: 66.9 fL

Question: And the Retic [2]?
Answer: 1.04%

Question: And the “WBC Differential Counting Baso” value [2]?
Answer: 0.93%

Question: And the “WBC Differential Counting Eos” value [2]?
Answer: 5.77%

Question: What about the “WBC Differential Counting Lymph” value [2] of the same molecule?
Answer: 27.00%

Question: And the “WBC Differential Counting Mono” value [2]?
Answer: 6.00%

Question: And the “WBC Differential Counting Neut” value [2]?
Answer: 59.80%

Question: What about the HCT [3] of the same molecule?
Answer: 48.1% and 48.8% and 45.2%

Question: And the HGB [3]?
Answer: 16.0 g/dL and 15.2 g/dL

Question: What about the MCH [3] of the same molecule?
Answer: 22.2 pg and 21.7 pg and 21 pg

Question: What about the MCHC [3] of the same molecule?
Answer: 33.3 g/dL and 32.9 g/dL and 33.7 g/dL

Question: And the MCV [3]?
Answer: 66.8 fL and 66.1 fL and 62.3 fL

Question: And the Retic [3]?
Answer: 1.21% and 1.16% and 1.11%

Question: What about the “WBC Differential Counting Baso” value [3] of the same molecule?
Answer: 1.0% and 0.9% and 0.8%

Question: What about the “WBC Differential Counting Eos” value [3] of the same molecule?
Answer: 3.5% and 4.7% and 6.4%

Question: And the “WBC Differential Counting Lymph” value [3]?
Answer: 40.5% and 29.4% and 23.2%

Question: What about the “WBC Differential Counting Mono” value [3] of the same molecule?
Answer: 4.7% and 8.3% and 6.0%

Question: What about the “WBC Differential Counting Neut” value [3] of the same molecule?
Answer: 49.6% and 56.2% and 63.3%

Question: What about the HCT [4] of the same molecule?
Answer: 47.37%

Question: What about the HGB [4] of the same molecule?
Answer: 15.73 g/dL

Question: What about the MCH [4] of the same molecule?
Answer: 21.6 pg

Question: What about the MCHC [4] of the same molecule?
Answer: 33.30 g/dL

Question: And the MCV [4]?
Answer: 65.1 fL

Question: What about the “WBC Differential Counting Baso” value [4] of the same molecule?
Answer: 0.90%

Question: What about the “WBC Differential Counting Eos” value [4] of the same molecule?
Answer: 4.87%

Question: And the “WBC Differential Counting Lymph” value [4]?
Answer: 31.03%

Question: And the “WBC Differential Counting Mono” value [4]?
Answer: 6.33%

Question: What about the “WBC Differential Counting Neut” value [4] of the same molecule?
Answer: 56.37%

Question: And the HGB [5]?
Answer: 15.77 g/dL

Question: What about the MCH [5] of the same molecule?
Answer: 22.9 pg

Question: What about the MCHC [5] of the same molecule?
Answer: 33.80 g/dL

Question: And the MCV [5]?
Answer: 67.9 fL

Question: What about the Retic [5] of the same molecule?
Answer: 0.41%

Question: What about the “WBC Differential Counting(%) Baso” value [5] of the same molecule?
Answer: 0.77%

Question: And the “WBC Differential Counting(%) Eos” value [5]?
Answer: 8.10%

Question: What about the “WBC Differential Counting(%) Lymph” value [5] of the same molecule?
Answer: 28.50%

Question: What about the “WBC Differential Counting(%) Mono” value [5] of the same molecule?
Answer: 5.30%

Question: What about the “WBC Differential Counting(%) Neut” value [5] of the same molecule?
Answer: 56.90%

Question: What about the HCT [6] of the same molecule?
Answer: 45.3% and 47.7% and 46.9%

Question: And the HGB [6]?
Answer: 15.3 g/dl and 16.0 g/dl (2×)

Question: What about the MCHC [6] of the same molecule?
Answer: 33.7 g/dL and 33.6 g/dL and 34.1 g/dL

Question: And the MCV [6]?
Answer: 67.2 fL and 68.8 fL and 67.5 fL

Question: What about the Retic [6] of the same molecule?
Answer: 0.25% and 0.42% and 0.55%

Question: What about the “WBC Differential Counting(%) Baso” value [6] of the same molecule?
Answer: 0.8% (2×) and 0.7%

Question: What about the “WBC Differential Counting(%) Eos” value [6] of the same molecule?
Answer: 8.1% and 7.4% and 8.8%

Question: And the “WBC Differential Counting(%) Lymph” value [6]?
Answer: 25.1% and 33.4% and 27.0%

Question: And the “WBC Differential Counting(%) Mono” value [6]?
Answer: 5.3% and 5.0% and 5.6%

Question: What about the “WBC Differential Counting(%) Neut” value [6] of the same molecule?
Answer: 60.2% and 53.1% and 57.4%

Question: And the HCT [7]?
Answer: 46.43%

Question: And the HGB [7]?
Answer: 15.53 g/dL

Question: And the MCH [7]?
Answer: 22.2 pg

Question: And the MCHC [7]?
Answer: 33.40 g/dL

Question: And the MCV [7]?
Answer: 66.4 fL

Question: What about the Retic [7] of the same molecule?
Answer: 0.50%

Question: What about the “WBC Differential Counting(%) Baso” value [7] of the same molecule?
Answer: 0.67%

Question: What about the “WBC Differential Counting(%) Eos” value [7] of the same molecule?
Answer: 6.23%

Question: And the “WBC Differential Counting(%) Lymph” value [7]?
Answer: 31.10%

Question: And the “WBC Differential Counting(%) Mono” value [7]?
Answer: 6.47%

Question: What about the “WBC Differential Counting(%) Neut” value [7] of the same molecule?
Answer: 55.10%

Question: What about the HCT [8] of the same molecule?
Answer: 43.8% and 47.0% and 48.5%

Question: What about the HGB [8] of the same molecule?
Answer: 14.4 g/dL and 15.8 g/dL and 16.4 g/dL

Question: What about the MCH [8] of the same molecule?
Answer: 22 pg and 22.8 pg and 21.8 pg

Question: And the MCHC [8]?
Answer: 32.9 g/dL and 33.5 g/dL and 33.8 g/dL

Question: What about the MCV [8] of the same molecule?
Answer: 66.8 fL and 67.9 fL and 64.5 fL

Question: What about the Retic [8] of the same molecule?
Answer: 0.45% and 0.59% and 0.46%

Question: And the “WBC Differential Counting(%) Baso” value [8]?
Answer: 0.8% and 0.7% and 0.5%

Question: What about the “WBC Differential Counting(%) Eos” value [8] of the same molecule?
Answer: 6.8% and 5.3% and 6.6%

Question: And the “WBC Differential Counting(%) Lymph” value [8]?
Answer: 35.9% and 32.7% and 24.7%

Question: What about the “WBC Differential Counting(%) Mono” value [8] of the same molecule?
Answer: 6.1% and 7.5% and 5.8%

Question: What about the “WBC Differential Counting(%) Neut” value [8] of the same molecule?
Answer: 50.0% and 53.4% and 61.9%

Question: And the HCT [9]?
Answer: 44.4% and 50.3% and 47.5%

Question: And the HGB [9]?
Answer: 14.6 g/dL and 16.9 g/dL and 15.9 g/dL

Question: And the MCH [9]?
Answer: 22.5 pg and 22.2 pg and 22.1 pg

Question: And the MCHC [9]?
Answer: 33.0 g/dL and 33.5 g/dL

Question: And the MCV [9]?
Answer: 68.3 fL and 66.4 fL and 66.2 fL

Question: What about the Retic [9] of the same molecule?
Answer: 0.61% and 0.91% and 1.01%

Question: What about the “WBC Differential Counting Baso” value [9] of the same molecule?
Answer: 0.6% and 1.5% and 0.4%

Question: What about the “WBC Differential Counting Eos” value [9] of the same molecule?
Answer: 3.4% and 1.1% and 3.7%

Question: What about the “WBC Differential Counting Lymph” value [9] of the same molecule?
Answer: 42.0% and 44.2% and 28.3%

Question: What about the “WBC Differential Counting Mono” value [9] of the same molecule?
Answer: 4.9% and 3.7% and 5.9%

Question: And the HCT [10]?
Answer: 47.40%

Question: And the HGB [10]?
Answer: 15.80 g/dL

Question: And the MCH [10]?
Answer: 22.3 pg

Question: And the MCHC [10]?
Answer: 33.33 g/dL

Question: What about the MCV [10] of the same molecule?
Answer: 67 fL

Question: What about the Retic [10] of the same molecule?
Answer: 0.84%

Question: What about the “WBC Differential Counting Baso” value [10] of the same molecule?
Answer: 0.83%

Question: And the “WBC Differential Counting Eos” value [10]?
Answer: 2.73%

Question: And the “WBC Differential Counting Lymph” value [10]?
Answer: 38.17%

Question: And the “WBC Differential Counting Mono” value [10]?
Answer: 4.83%

Question: And the HCT [11]?
Answer: 44.8% and 43.0% and 52.1%

Question: What about the HGB [11] of the same molecule?
Answer: 15.0 g/dL and 13.8 g/dL and 17.4 g/dL

Question: And the MCH [11]?
Answer: 23 pg and 22.3 pg and 22.9 pg

Question: What about the MCHC [11] of the same molecule?
Answer: 33.4 g/dL and 32.1 g/dL

Question: And the MCV [11]?
Answer: 68 fL and 69.4 fL and 68.7 fL

Question: What about the Retic [11] of the same molecule?
Answer: 0.60% and 0.46% and 0.84%

Question: And the “WBC Differential Counting Baso” value [11]?
Answer: 0.4% and 0.8% and 1.1%

Question: And the “WBC Differential Counting Eos” value [11]?
Answer: 2.6% and 8.5% and 2.9%

Question: What about the “WBC Differential Counting Lymph” value [11] of the same molecule?
Answer: 36.0% and 33.1% and 36.7%

Question: And the “WBC Differential Counting Mono” value [11]?
Answer: 5.9% and 7.8% and 5.8%

Question: And the “WBC Differential Counting Neut” value [11]?
Answer: 54.8% and 49.4% and 53.0%

Question: What about the HCT [12] of the same molecule?
Answer: 46.63%

Question: And the HGB [12]?
Answer: 15.40 g/dL

Question: And the MCH [12]?
Answer: 22.7 pg

Question: And the MCHC [12]?
Answer: 32.97 g/dL

Question: What about the MCV [12] of the same molecule?
Answer: 69 fL

Question: And the Retic [12]?
Answer: 0.63%

Question: What about the “WBC Differential Counting Baso” value [12] of the same molecule?
Answer: 0.77%

Question: And the “WBC Differential Counting Eos” value [12]?
Answer: 4.67%

Question: What about the “WBC Differential Counting Lymph” value [12] of the same molecule?
Answer: 35.27%

Question: What about the “WBC Differential Counting Mono” value [12] of the same molecule?
Answer: 6.50%

Question: What about the “WBC Differential Counting Neut” value [12] of the same molecule?
Answer: 52.40%

Question: What about the HCT [13] of the same molecule?
Answer: 48.00%

Question: And the HGB [13]?
Answer: 16.00 g/dL
